Results published in patent publication US20120065228A1, “COMPOSITIONS AND METHODS FOR TREATING, CONTROLLING, REDUCING, OR AMELIORATING OCULAR INFLAMMATORY WITH LOWER RISK OF INCREASED INTRAOCULAR PRESSURE” (priority 2007, published 2012).

System: intraocular pressure (IOP)
Assay: Clinical dose ranging study after cataract surgery: intraocular pressure (safety)
Type: in vivo, human
Excerpt: There were 8 treatment groups in this study, consisting of three drug doses, vehicle and three dosing frequencies (see also Table 4-1): • Group A: 1% BOL-303242-X ophthalmic suspension, two times per day (BID) • Group B: 2% BOL-303242-X ophthalmic suspension, one time per day (QD) • Group C: 2% BOL-303242-X ophthalmic suspension, BID • Group D: 2% BOL-303242-X ophthalmic suspension, four times per day (QID) • Group E: 3% BOL-303242-X ophthalmic suspension, QD • Group F: 3% BOL-303242-X ophthalmic suspension, BID • Group G: 3% BOL-303242-X ophthalmic suspension, QID • Group H: Vehicle for BOL-303242-X (divided equally into QID, BID, and QD)
Subjects self-administered study drug, instilling 1 to 2 drops of study drug into the study eye: QID at approximately 4 hour intervals, BID at approximately 12 hour intervals, or QD once in the morning, for 14 days. The initial dose occurred in the clinic at Visit 3 and the final dose was on the day before Visit 6 (postoperative Day 15±1 day). Subjects were examined and evaluated according to the following schedule:
Visit 1 (screening), Visit 2 (cataract surgery), Visit 3 (postoperative Day 1), Visit 4 (postoperative Day 3±1 day), Visit 5 (postoperative Day 8±1 day), Visit 6 (postoperative Day 15±1 day), Visit 7 (postoperative Day 18±1 day). […]

Cc1ccc2c(NCC(O)(CC(C)(C)c3cc(F)cc4c3OCC4)C(F)(F)F)cccc2n1 (centres unmarked) [BOL-303242-X]
Mean IOP values among groups (2% QID and 3% QD groups, Visit 4 (postoperative Day 3) to Visit 7 (postoperative Day 18)): lowest mean IOP values | Proportion of subjects with mean IOP changes from baseline of ≧5 mmHg or ≧10 mmHg, compared to vehicle (any dose groups at any study visits): no statistically significant differences
